Reference: PubChem BioAssay AID1963833 (Molecular Pharmacology Branch, DTP, NCI, 2024)

System: 883617-216-R-J1-PDC complex spheroid viability
Experiment: Anticancer human tumor 883617-216-R-J1-PDC patient-derived bladder carcinoma cell line growth inhibition [POLQ]
Conditions: for IC50: curve of first compound; for viability, T/C: stronger effect = lower value
Procedure, shortened: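 Three-cell-type spheroids modelling solid tumor plus stroma served as the readout system; POL inhibitors were tested individually and in combination, concentration ranges set by clinical Cmax where known.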

[1] = second compound 0.0316 µM, first compound 0.00316 µM
[2] = second compound 0.0316 µM, first compound 0.01 µM
[3] = second compound 0.0316 µM, first compound 0.0316 µM
[4] = second compound 0.0316 µM, first compound 0.1 µM
[5] = second compound 0.1 µM, first compound 0.00316 µM
[6] = second compound 0.1 µM, first compound 0.01 µM
[7] = second compound 0.1 µM, first compound 0.0316 µM
[8] = second compound 0.1 µM, first compound 0.1 µM
[9] = second compound 0.316 µM, first compound 0.00316 µM
[10] = second compound 0.316 µM, first compound 0.01 µM
[11] = second compound 0.316 µM, first compound 0.0316 µM
[12] = second compound 0.316 µM, first compound 0.1 µM
[13] = second compound 1 µM, first compound 0.00316 µM
[14] = second compound 1 µM, first compound 0.01 µM
[15] = second compound 1 µM, first compound 0.0316 µM
[16] = second compound 1 µM, first compound 0.1 µM
[17] = second compound 3.16 µM, first compound 0.00316 µM
[18] = second compound 3.16 µM, first compound 0.01 µM
[19] = second compound 3.16 µM, first compound 0.0316 µM
[20] = second compound 3.16 µM, first compound 0.1 µM
[21] = second compound 10 µM, first compound 0.00316 µM
[22] = second compound 10 µM, first compound 0.01 µM
[23] = second compound 10 µM, first compound 0.0316 µM
[24] = second compound 10 µM, first compound 0.1 µM
[25] = second compound 0.0316 µM, first compound 0.316 µM
[26] = second compound 0.0316 µM, first compound 1 µM
[27] = second compound 0.1 µM, first compound 0.316 µM
[28] = second compound 0.1 µM, first compound 1 µM
[29] = second compound 0.316 µM, first compound 0.316 µM
[30] = second compound 0.316 µM, first compound 1 µM
[31] = second compound 1 µM, first compound 0.316 µM
[32] = second compound 1 µM, first compound 1 µM
[33] = second compound 3.16 µM, first compound 0.316 µM
[34] = second compound 3.16 µM, first compound 1 µM
[35] = second compound 10 µM, first compound 0.316 µM
[36] = second compound 10 µM, first compound 1 µM
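Note: spheroids exposed to compounds for seven days before readout.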
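Throughout, for viability, T/C: 100% = DMSO vehicle control viability.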

Cn1ncnc1[C@H]1c2n[nH]c(=O)c3cc(F)cc(c23)N[C@@H]1c1ccc(F)cc1 + COC1C(OC(N)=O)C(O)C(Oc2ccc3c(O)c(NC(=O)c4ccc(O)c(CC=C(C)C)c4)c(=O)oc3c2C)OC1(C)C
IC50 (second compound 0.0316 µM): > 0.1 µM
IC50 (second compound 0.1 µM): > 0.1 µM
IC50 (second compound 0.316 µM): > 0.1 µM
IC50 (second compound 1 µM): > 0.1 µM
IC50 (second compound 3.16 µM): > 0.1 µM
IC50 (second compound 10 µM): > 0.1 µM
viability, T/C (second compound 0.0316 µM, first compound 0.000316 µM): 103%
viability, T/C (second compound 0.0316 µM, first compound 0.001 µM): 93.1%
viability, T/C [1]: 95.5%
viability, T/C [2]: 94.9%
viability, T/C [3]: 72.8%
viability, T/C [4]: 78.4%
viability, T/C (second compound 0.1 µM, first compound 0.000316 µM): 110%
viability, T/C (second compound 0.1 µM, first compound 0.001 µM): 95.9%
viability, T/C [5]: 108%
viability, T/C [6]: 80.2%
viability, T/C [7]: 75.8%
viability, T/C [8]: 69.3%
viability, T/C (second compound 0.316 µM, first compound 0.000316 µM): 108%
viability, T/C (second compound 0.316 µM, first compound 0.001 µM): 99%
viability, T/C [9]: 89.9%
viability, T/C [10]: 82.9%
viability, T/C [11]: 67.5%
viability, T/C [12]: 64%
viability, T/C (second compound 1 µM, first compound 0.000316 µM): 95.8%
viability, T/C (second compound 1 µM, first compound 0.001 µM): 104%
viability, T/C [13]: 101%
viability, T/C [14]: 80.5%
viability, T/C [15]: 83.2%
viability, T/C [16]: 76.9%
viability, T/C (second compound 3.16 µM, first compound 0.000316 µM): 99.4%
viability, T/C (second compound 3.16 µM, first compound 0.001 µM): 102%
viability, T/C [17]: 101%
viability, T/C [18]: 70.9%
viability, T/C [19]: 82.5%
viability, T/C [20]: 68%
viability, T/C (second compound 10 µM, first compound 0.000316 µM): 94.2%
viability, T/C (second compound 10 µM, first compound 0.001 µM): 97.9%
viability, T/C [21]: 97.7%
viability, T/C [22]: 71.6%
viability, T/C [23]: 79.5%
viability, T/C [24]: 70.8%

CCc1c2c(nc3ccc(O)cc13)-c1cc3c(c(=O)n1C2)COC(=O)[C@]3(O)CC + COC1C(OC(N)=O)C(O)C(Oc2ccc3c(O)c(NC(=O)c4ccc(O)c(CC=C(C)C)c4)c(=O)oc3c2C)OC1(C)C
IC50 (second compound 0.0316 µM): 0.098 µM
IC50 (second compound 0.1 µM): 0.104 µM
IC50 (second compound 0.316 µM): 0.0602 µM
IC50 (second compound 1 µM): 0.0784 µM
IC50 (second compound 3.16 µM): 0.108 µM
IC50 (second compound 10 µM): 0.0995 µM
viability, T/C [1]: 63.7%
viability, T/C [2]: 57.6%
viability, T/C [3]: 67.5%
viability, T/C [4]: 47.6%
viability, T/C [25]: 33.5%
viability, T/C [26]: 25.2%
viability, T/C [5]: 58.6%
viability, T/C [6]: 59.3%
viability, T/C [7]: 59.9%
viability, T/C [8]: 49.7%
viability, T/C [27]: 33.6%
viability, T/C [28]: 20.7%
viability, T/C [9]: 70.1%
viability, T/C [10]: 62.3%
viability, T/C [11]: 55.1%
viability, T/C [12]: 49.1%
viability, T/C [29]: 31.6%
viability, T/C [30]: 29.7%
viability, T/C [13]: 68.7%
viability, T/C [14]: 59.2%
viability, T/C [15]: 61.4%
viability, T/C [16]: 46.9%
viability, T/C [31]: 33.6%
viability, T/C [32]: 21.1%
viability, T/C [17]: 66.8%
viability, T/C [18]: 58%
viability, T/C [19]: 60.2%
viability, T/C [20]: 51.8%
viability, T/C [33]: 35%
viability, T/C [34]: 21.1%
viability, T/C [21]: 71%
viability, T/C [22]: 56%
viability, T/C [23]: 63.3%
viability, T/C [24]: 46.2%
viability, T/C [35]: 42%
viability, T/C [36]: 21.7%

COc1cccc2c1C(=O)c1c(O)c3c(c(O)c1C2=O)CC(O)(C(=O)CO)CC3OC1CC(N)C(O)C(C)O1 (stereo unspecified) + Nc1ccc(C#CCN(C(=O)Cc2ncc(C(F)(F)F)cc2C(F)(F)F)c2ccc(F)cc2)nn1
IC50 (second compound 0.0316 µM): 0.44 µM
IC50 (second compound 0.1 µM): 0.382 µM
IC50 (second compound 0.316 µM): 0.341 µM
IC50 (second compound 1 µM): 0.398 µM
IC50 (second compound 3.16 µM): 0.371 µM
IC50 (second compound 10 µM): 0.419 µM
viability, T/C [3]: 76.5%
viability, T/C [4]: 67.2%
viability, T/C [25]: 62.8%
viability, T/C [26]: 19.8%
viability, T/C (second compound 0.0316 µM, first compound 3.16 µM): 0.23%
viability, T/C (second compound 0.0316 µM, first compound 10 µM): 0.18%
viability, T/C [7]: 71.3%
viability, T/C [8]: 74.7%
viability, T/C [27]: 55.2%
viability, T/C [28]: 18.8%
viability, T/C (second compound 0.1 µM, first compound 3.16 µM): 0.24%
viability, T/C (second compound 0.1 µM, first compound 10 µM): 0.17%
viability, T/C [11]: 79.3%
viability, T/C [12]: 72.2%
viability, T/C [29]: 52.9%
viability, T/C [30]: 16.7%
viability, T/C (second compound 0.316 µM, first compound 3.16 µM): 0.21%
viability, T/C (second compound 0.316 µM, first compound 10 µM): 0.71%
viability, T/C [15]: 77.3%
viability, T/C [16]: 64.2%
viability, T/C [31]: 59.7%
viability, T/C [32]: 15.4%
viability, T/C (second compound 1 µM, first compound 3.16 µM): 0.76%
viability, T/C (second compound 1 µM, first compound 10 µM): 0.21%
viability, T/C [19]: 78.5%
viability, T/C [20]: 68.6%
viability, T/C [33]: 56.6%
viability, T/C [34]: 15.3%
viability, T/C (second compound 3.16 µM, first compound 3.16 µM): 0.47%
viability, T/C (second compound 3.16 µM, first compound 10 µM): 0.94%
viability, T/C [23]: 81.8%
viability, T/C [24]: 63%
viability, T/C [35]: 62.6%
viability, T/C [36]: 14.5%
viability, T/C (second compound 10 µM, first compound 3.16 µM): 0.53%
viability, T/C (second compound 10 µM, first compound 10 µM): 0.36%
